The text below walks through data of US8357694B2, “Substituted 5,6-dihydro-6-phenylbenzo[F]isoquinolin-2-amine compounds” (ArQule, Inc., priority 2008, dated 2013).

Counter-ions that a name gives are not always drawn.

The term melting point denotes the temperature, or range, at which the solid turns liquid.

On to `Brc1ccc([C@@H]2Cc3cnc(Nc4ccc(CCN5CCCCC5)cc4)nc3-c3ccccc32)cc1` (as salt: hydrochloride) [Example 103, (S)-6-(4-bromophenyl)-N-(4-(2-(piperidin-1-yl)ethyl)phenyl)-5,6-dihydrobenzo[h]quinazolin-2-amine hydrochloride salt], for which the melting point fell in the range of 205 to 210 °C.

`COCCN1CCN(CCc2ccc(Nc3ncc4c(n3)-c3ccccc3[C@H](c3ccc(Cl)c(Cl)c3)C4)cc2)CC1` (as salt: hydrochloride) [Example 115, (S)-6-(3,4-dichlorophenyl)-N-(4-(2-(4-(2-methoxyethyl)piperazin-1-yl)ethyl)phenyl)-5,6-dihydrobenzo[h]quinazolin-2-amine hydrochloride] yielded a melting point of 248 to 250 °C.

In turn, `Fc1ccc(C2Cc3cnc(Nc4ccc(CCN5CCCCC5)cc4)nc3-c3ccccc32)cc1F` (stereo not drawn) (as salt: hydrochloride) [Example 57, 6-(3,4-difluorophenyl)-N-(4-(2-(piperidin-1-yl)ethyl)phenyl)-5,6-dihydrobenzo[h]quinazolin-2-amine] came in with a melting point of 214 to 218 °C.

The compound `CN(C)CCCCNc1ncc2c(n1)-c1ccccc1C(c1cccc(Br)c1)C2` (stereo not drawn) [Example 6, N^1-(6-(3-bromophenyl)-5,6-dihydrobenzo[h]quinazolin-2-yl)-N^4,N^4-dimethylbutane-1,4-diamine] yielded a melting point of 115 to 117 °C.

`CN1CCN(CCc2ccc(Nc3ncc4c(n3)-c3ccccc3C(c3cccc(Br)c3)C4)cc2)CC1` (stereo not drawn) [Example 28, 6-(3-bromophenyl)-N-(4-(2-(4-methylpiperazin-1-yl)ethyl)phenyl)-5,6-dihydrobenzo[h]quinazolin-2-amine] registered a melting point of 100 to 102 °C.

Turning to `CCCCN(C)CCc1ccc(Nc2ncc3c(n2)-c2ccccc2[C@@H](c2ccc(Br)cc2)C3)cc1` (as salt: hydrochloride) [Example 107, (R)-6-(4-bromophenyl)-N-(4-(2-(butyl(methyl)amino)ethyl)phenyl)-5,6-dihydrobenzo[h]quinazolin-2-amine hydrochloride salt], the melting point is 140 to 145 °C.

`COCCNCCc1ccc(Nc2ncc3c(n2)-c2ccccc2C(c2ccccc2C(F)(F)F)C3)cc1` (stereo not drawn) [Example 70, N-(4-(2-(2-methoxyethylamino)ethyl)phenyl)-6-(2-(trifluoromethyl)phenyl)-5,6-dihydrobenzo[h]quinazolin-2-amine] displayed a melting point of 61 to 62 °C.

For `Fc1ccc([C@@H]2Cc3cnc(Nc4ccc(CCN5CCOCC5)cc4)nc3-c3ccccc32)cc1F` (as salt: hydrochloride) [Example 92, (S)-6-(3,4-difluorophenyl)-N-(4-(2-morpholinoethyl)phenyl)-5,6-dihydrobenzo[h]quinazolin-2-amine hydrochloride], the melting point was 97 to 99 °C.

For the compound `OCCc1ccccc1Nc1ncc2c(n1)-c1ccccc1[C@H](c1ccccc1F)C2` [Example 177, (R)-2-(2-(6-(2-fluorophenyl)-5,6-dihydrobenzo[h]quinazolin-2-ylamino)phenyl)ethanol], the melting point was in the range of 162 to 163 °C.

`Clc1ccc([C@H]2Cc3cnc(Nc4ccc(CCN5CCCCC5)cc4)nc3-c3ccccc32)cc1Cl`: the melting point is 157 to 158 °C.

In turn, `CN(CCc1ccc(Nc2ncc3c(n2)-c2ccccc2[C@H](c2ccccc2F)C3)cc1)C1CCCCC1` (as salt: HCl) [Example 95, (R)—N-(4-(2-(cyclohexyl(methyl)amino)ethyl)phenyl)-6-(2-fluorophenyl)-5,6-dihydrobenzo[h]quinazolin-2-amine] returned a melting point of 158 to 164 °C.

For `COCCN1CCN(CCc2cccc(Nc3ncc4c(n3)-c3ccccc3[C@@H](c3ccccc3F)C4)c2)CC1` (as salt: hydrochloride) [Example 164, (S)-6-(2-fluorophenyl)-N-(3-(2-(4-(2-methoxyethyl)piperazin-1-yl)ethyl)phenyl)-5,6-dihydrobenzo[h]quinazolin-2-amine], the melting point is 148 to 150 °C.

For `COCCN1CCN(CCc2ccc(Nc3ncc4c(n3)-c3ccccc3[C@H](c3cccc(Br)c3)C4)cc2)CC1` (as salt: hydrochloride) [Example 77, (S)-6-(3-bromophenyl)-N-(4-(2-(4-(2-methoxyethyl)piperazin-1-yl)ethyl)phenyl)-5,6-dihydrobenzo[h]quinazolin-2-amine hydrochloride], the melting point is 263 to 265 °C.

With `Brc1cccc(C2Cc3cnc(Nc4ccc(CCNc5ccccc5)cc4)nc3-c3ccccc32)c1` (stereo not drawn) [Example 35, 6-(3-bromophenyl)-N-(4-(2-(phenylamino)ethyl)phenyl)-5,6-dihydrobenzo[h]quinazolin-2-amine], the melting point fell in the range of 92 to 94 °C.

In turn, `COCCN(CCOC)CCc1ccc(Nc2ncc3c(n2)-c2ccccc2C(c2cccc(Br)c2)C3)cc1` (stereo not drawn) [Example 42, N-(4-(2-(bis(2-methoxyethyl)amino)ethyl)phenyl)-6-(3-bromophenyl)-5,6-dihydrobenzo[h]quinazolin-2-amine] had a melting point of 58 to 60 °C.

In the case of `CCCCN(C)CCc1ccc(Nc2ncc3c(n2)-c2ccccc2[C@H](c2ccccc2F)C3)cc1` (as salt: hydrochloride) [Example 110, (R)—N-(4-(2-(butyl(methyl)amino)ethyl)phenyl)-6-(2-fluorophenyl)-5,6-dihydrobenzo[h]quinazolin-2-amine hydrochloride], the melting point lay in the range of 78 to 81 °C.

In the case of `CN(CCc1ccc(Nc2ncc3c(n2)-c2ccccc2C(c2ccc(F)c(F)c2)C3)cc1)C1CCCCC1` (stereo not drawn) (as salt: hydrochloride) [Example 60, N-(4-(2-(cyclohexyl(methyl)amino)ethyl)phenyl)-6-(3,4-difluorophenyl)-5,6-dihydrobenzo[h]quinazolin-2-amine], the melting point lay within 107 to 114 °C.

Consider `CN(CCc1ccc(Nc2ncc3c(n2)-c2ccccc2[C@H](c2ccc(F)c(F)c2)C3)cc1)C1CCCCC1` (as salt: hydrochloride) [Example 85, (S)—N-(4-(2-(cyclohexyl(methyl)amino)ethyl)phenyl)-6-(3,4-difluorophenyl)-5,6-dihydrobenzo[h]quinazolin-2-amine hydrochloride], for which the melting point lay in the range of 96 to 98 °C.

Take `COCCNCCc1ccc(Nc2ncc3c(n2)-c2ccccc2[C@H](c2ccc(F)c(F)c2)C3)cc1` (as salt: hydrochloride) [Example 86, (S)-6-(3,4-difluorophenyl)-N-(4-(2-(2-methoxyethylamino)ethyl)phenyl)-5,6-dihydrobenzo[h]quinazolin-2-amine hydrochloride]: the melting point lay within 85 to 87 °C.

In the case of `COCCN1CCN(CCc2ccc(Nc3ncc4c(n3)-c3ccccc3C(c3ccc(Cl)cc3)C4)cc2)CC1` (stereo not drawn) (as salt: hydrochloride) [Example 56, 6-(4-chlorophenyl)-N-(4-(2-(4-(2-methoxyethyl)piperazin-1-yl)ethyl)phenyl)-5,6-dihydrobenzo[h]quinazolin-2-amine hydrochloride], the melting point fell in the range of 204 to 214 °C.

Compound `CN(C)CCCNc1ncc2c(n1)-c1ccccc1C(c1ccc(Cl)c(Cl)c1)C2` (stereo not drawn) [Example 11, N^1-(6-(3,4-dichlorophenyl)-5,6-dihydrobenzo[h]quinazolin-2-yl)-N^3,N^3-dimethylpropane-1,3-diamine] displayed a melting point of 110 to 114 °C.

The compound `Clc1ccc(C2Cc3cnc(Nc4ccc(CCN5CCOCC5)cc4)nc3-c3ccccc32)cc1Cl` (stereo not drawn) [Example 50, 6-(3,4-dichlorophenyl)-N-(4-(2-morpholinoethyl)phenyl)-5,6-dihydrobenzo[h]quinazolin-2-amine] came in with a melting point of 180 to 181 °C.

Take `Brc1cccc([C@@H]2Cc3cnc(Nc4ccc(CCN5CCCCC5)cc4)nc3-c3ccccc32)c1` (as salt: hydrochloride) [Example 78, (S)-6-(3-bromophenyl)-N-(4-(2-(piperidin-1-yl)ethyl)phenyl)-5,6-dihydrobenzo[h]quinazolin-2-amine hydrochloride]: the melting point is 120 to 125 °C.

With `COCCNCCc1cc(Nc2ncc3c(n2)-c2ccccc2[C@H](c2ccccc2F)C3)ccc1F` (as salt: hydrochloride) [Example 173, (R)—N-(4-fluoro-3-(2-(2-methoxyethylamino)ethyl)phenyl)-6-(2-fluorophenyl)-5,6-dihydrobenzo[h]quinazolin-2-amine hydrochloride salt], the melting point was 131 to 132 °C.

The compound `Clc1ccccc1[C@H]1Cc2cnc(Nc3ccc(CCN4CCCCC4)cc3)nc2-c2ccccc21` (as salt: hydrochloride) had a melting point of 164 to 167 °C.

As to `COCCN1CCN(CCc2ccc(Nc3ncc4c(n3)-c3ccccc3C(c3ccc(Cl)c(Cl)c3)C4)cc2)CC1` (stereo not drawn) [Example 33, 6-(3,4-dichlorophenyl)-N-(4-(2-(4-(2-methoxyethyl)piperazin-1-yl)ethyl)phenyl)-5,6-dihydrobenzo[h]quinazolin-2-amine], the melting point fell in the range of 121 to 122 °C.

The compound `N#Cc1c(NCCCN2CCCC2)ncc2c1-c1ccccc1C(c1ccc(Cl)c(Cl)c1)C2` (stereo not drawn) [Example 180, 6-(3,4-dichlorophenyl)-2-(3-(pyrrolidin-1-yl)propylamino)-5,6-dihydrobenzo[f]isoquinoline-1-carbonitrile] came in with a melting point of 104 to 110 °C.

The compound `OCCc1cc(Nc2ncc3c(n2)-c2ccccc2[C@H](c2ccccc2F)C3)ccc1F` [Example 169, (R)-2-(2-fluoro-5-(6-(2-fluorophenyl)-5,6-dihydrobenzo[h]quinazolin-2-ylamino)phenyl)ethano] came in with a melting point of 140 to 141 °C.

In the case of `CN(C)CCCNc1ncc2c(n1)-c1ccccc1[C@@H](c1ccc(Cl)c(Cl)c1)C2` [Example 12, (R)—N^1-(6-(3,4-dichlorophenyl)-5,6-dihydrobenzo[h]quinazolin-2-yl)-N^3,N^3-dimethylpropane-1,3-diamine], the melting point fell in the range of 59 to 62 °C.

Turning to `COCCN1CCN(CCc2ccc(Nc3ncc4c(n3)-c3ccccc3[C@H](c3ccc(Cl)cc3)C4)cc2)CC1` (as salt: hydrochloride) [Example 113, (S)-6-(4-chlorophenyl)-N-(4-(2-(4-(2-methoxyethyl)piperazin-1-yl)ethyl)phenyl)-5,6-dihydrobenzo[α]quinazolin-2-amine hydrochloride], the melting point fell in the range of 261 to 263 °C.
